Experimental data published in ChEMBL document CHEMBL1145006 (J Med Chem, 2003).
pIC50, pKi: −log10 of the molar value. Starred links: 1 amine or outer side, 2 acyl side, 3 side chain; linkers in the order of their positions; H or OH if unused. Positions of bridges follow the written chain, without caps; N, C: chain ends. Non-standard residues stand in square brackets, D forms with d. Residues, ends and D or L forms follow the SMILES beside them. Groups on a side chain read outwards from the residue. *: point of attachment. Ethylenediamine = C(CN[*:2])N[*:1]; Hyp = O=C(O)[C@@H]1C[C@@H](O)CN1; Phg = N[C@H](C(=O)O)c1ccccc1; CO = O=C([*:1])[*:2]; Bn = c1ccc(C*)cc1

Key:
[1] = biological target: Somatostatin receptor type 2 (Homo sapiens, UniProt P30874); assay: Binding affinity towards human Somatostatin receptor type 2 (sst2) using Tyr11-[125I]-SRIF as radioligand was determined in CHO cells; assay type: cell-based
[2] = biological target: Somatostatin receptor type 5 (Homo sapiens, UniProt P35346); assay: Binding affinity towards human Somatostatin receptor type 5 (sst5) using Tyr11-[125I]-SRIF as radioligand was determined in COS cell; assay type: cell-based
[3] = biological target: Somatostatin receptor type 4 (Homo sapiens, UniProt P31391); assay: Binding affinity towards human Somatostatin receptor type 4 (sst4) using Tyr11-[125I]-SRIF as radioligand was determined in CHO cells; assay type: cell-based; conditions: for Log Ki: cho
[4] = biological target: Somatostatin receptor type 1 (Homo sapiens, UniProt P30872); assay: Binding affinity towards human Somatostatin receptor type 1 (sst1) using Tyr11-[125I]-SRIF as radioligand was determined in CHO cells; assay type: cell-based
[5] = biological target: Somatostatin receptor type 3 (Homo sapiens, UniProt P32745); assay: Binding affinity towards human Somatostatin receptor type 3 (sst3) using Tyr11-[125I]-SRIF as radioligand was determined in CHO cells; assay type: cell-based
Rattus norvegicus = species on record: Rattus norvegicus; assay: In vitro inhibition of GHRH induced GH release in primary cultures of rat pituitary cells; assay type: functional, cell-based; conditions: Pituitary gland cell

Somatostatin receptor type 4, sequence (P31391 whole entry): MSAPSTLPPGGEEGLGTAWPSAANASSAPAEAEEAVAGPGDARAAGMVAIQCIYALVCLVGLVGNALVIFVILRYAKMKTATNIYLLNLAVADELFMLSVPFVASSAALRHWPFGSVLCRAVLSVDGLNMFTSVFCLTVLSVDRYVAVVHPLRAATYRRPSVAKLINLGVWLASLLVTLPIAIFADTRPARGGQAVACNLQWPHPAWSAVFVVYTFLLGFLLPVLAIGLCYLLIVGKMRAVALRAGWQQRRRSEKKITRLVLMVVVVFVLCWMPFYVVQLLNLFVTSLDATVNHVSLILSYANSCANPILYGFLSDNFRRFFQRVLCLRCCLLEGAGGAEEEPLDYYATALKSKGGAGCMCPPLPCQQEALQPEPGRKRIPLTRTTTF
Somatostatin receptor type 2, sequence (P30874 whole entry): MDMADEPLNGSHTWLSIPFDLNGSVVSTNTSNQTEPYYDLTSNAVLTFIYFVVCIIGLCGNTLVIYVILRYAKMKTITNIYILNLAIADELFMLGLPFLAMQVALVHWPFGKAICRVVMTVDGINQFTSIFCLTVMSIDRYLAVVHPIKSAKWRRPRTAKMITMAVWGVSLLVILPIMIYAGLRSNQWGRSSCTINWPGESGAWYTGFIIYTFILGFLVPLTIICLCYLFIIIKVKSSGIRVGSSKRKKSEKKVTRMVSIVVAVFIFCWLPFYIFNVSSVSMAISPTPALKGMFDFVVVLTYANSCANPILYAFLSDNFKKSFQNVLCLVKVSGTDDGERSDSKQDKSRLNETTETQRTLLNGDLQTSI
Somatostatin receptor type 1, sequence (P30872 whole entry): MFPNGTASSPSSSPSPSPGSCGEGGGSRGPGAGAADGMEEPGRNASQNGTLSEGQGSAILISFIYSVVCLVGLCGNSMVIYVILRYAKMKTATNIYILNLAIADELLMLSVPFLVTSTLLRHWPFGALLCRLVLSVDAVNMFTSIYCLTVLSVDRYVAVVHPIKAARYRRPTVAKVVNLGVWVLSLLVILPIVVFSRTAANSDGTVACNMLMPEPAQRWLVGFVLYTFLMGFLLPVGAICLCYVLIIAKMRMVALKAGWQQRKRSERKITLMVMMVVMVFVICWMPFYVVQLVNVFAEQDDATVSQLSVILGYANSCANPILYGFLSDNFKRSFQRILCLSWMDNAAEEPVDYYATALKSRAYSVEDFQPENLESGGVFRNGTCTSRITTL
Somatostatin receptor type 3, sequence (P32745 whole entry): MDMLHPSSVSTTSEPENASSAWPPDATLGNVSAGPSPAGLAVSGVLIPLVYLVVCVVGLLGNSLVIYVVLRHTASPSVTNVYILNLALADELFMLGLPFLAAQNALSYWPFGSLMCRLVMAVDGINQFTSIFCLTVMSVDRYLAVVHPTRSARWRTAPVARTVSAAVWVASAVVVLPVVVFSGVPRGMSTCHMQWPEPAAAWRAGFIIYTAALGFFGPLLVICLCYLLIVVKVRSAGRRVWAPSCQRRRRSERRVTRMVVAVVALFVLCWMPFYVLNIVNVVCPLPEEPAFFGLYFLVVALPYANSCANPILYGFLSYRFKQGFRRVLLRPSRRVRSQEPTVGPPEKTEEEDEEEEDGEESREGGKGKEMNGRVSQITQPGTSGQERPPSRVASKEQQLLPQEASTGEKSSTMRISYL
Somatostatin receptor type 5, sequence (P35346 whole entry): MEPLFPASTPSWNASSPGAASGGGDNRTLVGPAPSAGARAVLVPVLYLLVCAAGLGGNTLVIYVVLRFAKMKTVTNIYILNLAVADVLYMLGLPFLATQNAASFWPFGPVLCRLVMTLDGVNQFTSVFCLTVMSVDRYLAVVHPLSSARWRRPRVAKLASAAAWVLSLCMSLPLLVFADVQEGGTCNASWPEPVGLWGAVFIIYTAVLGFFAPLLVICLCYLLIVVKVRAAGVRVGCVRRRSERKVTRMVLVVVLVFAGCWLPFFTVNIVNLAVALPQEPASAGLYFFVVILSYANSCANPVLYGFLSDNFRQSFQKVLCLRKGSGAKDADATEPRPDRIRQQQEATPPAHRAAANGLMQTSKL

pKi [1] | pKi [2] | Log Ki [3] | pKi [4] | pKi [5] | pIC50 (Rattus norvegicus) | pKi [3] | Compound
9.00 | 9.90 | > -7 | 8.20 | 9.10 | 9.40 | – | NCCCC[C@@H]1NC(=O)[C@@H](Cc2c[nH]c3ccccc23)NC(=O)[C@H](c2ccccc2)NC(=O)[C@@H]2C[C@@H](OC(=O)NCCN)CN2C(=O)[C@H](Cc2ccccc2)NC(=O)[C@H](Cc2ccc(OCc3ccccc3)cc2)NC1=O [PASIREOTIDE] (cyclo(F[Hyp]([CO-Ethylenediamine])[Phg][dW]KY(Bn)))
9.00 | 9.20 | > -8.4 | 8.20 | 8.80 | – | – | C[C@H](N)C(=O)NCC(=O)N[C@H]1CSSC[C@@H](C(N)=O)NC(=O)[C@H](CO)NC(=O)[C@H]([C@@H](C)O)NC(=O)[C@H](Cc2ccccc2)NC(=O)[C@H](C)NC(=O)[C@H](CCCCN)NC(=O)[C@H](Cc2c[nH]c3ccccc23)NC(=O)[C@H](Cc2ccccc2)NC(=O)[C@H](Cc2ccccc2)NC(=O)[C@H](CC(N)=O)NC(=O)[C@H](CCCCN)NC1=O (H-AGCKNFFWKAFTSC-NH2; disulfide 3-14)
9.70 | < 6.00 | – | < 6.00 | 6.70 | – | < 6.00 | C[C@@H](O)[C@@H]1NC(=O)[C@H](CCCCN)NC(=O)[C@@H](Cc2c[nH]c3ccccc23)NC(=O)[C@H](Cc2ccccc2)NC(=O)[C@@H]2C[C@@H](O)CN2C(=O)[C@H](Cc2ccccc2)NC1=O (cyclo(F[Hyp]F[dW]KT))
9.10 | 8.50 | > -7 | 8.40 | 9.10 | – | – | NCCCC[C@@H]1NC(=O)[C@@H](Cc2c[nH]c3ccccc23)NC(=O)[C@H](Cc2c[nH]cn2)NC(=O)[C@@H]2C[C@@H](OC(=O)NCCN)CN2C(=O)[C@H](Cc2ccccc2)NC(=O)[C@H](Cc2ccc(OCc3ccccc3)cc2)NC1=O
